Assay results: BigSolDB 2.1

CC(=O)Oc1ccc(C(c2ccc(OC(C)=O)cc2)c2ccccn2)cc1
solubility (mole fraction)
Settings | 278.15 K | 283.15 K | 288.15 K | 293.15 K | 298.15 K | 303.15 K | 308.15 K | 313.15 K | 318.15 K | 323.15 K
in ethanol | 0.000239 | 0.000333 | 0.000452 | 0.000618 | 0.000835 | 0.0011 | 0.00145 | 0.00192 | 0.0025 | 0.00322
in isopropanol | 0.000113 | 0.000162 | 0.000225 | 0.000311 | 0.000425 | 0.000579 | 0.000777 | 0.00104 | 0.00139 | 0.00179
in methanol | 0.000551 | 0.000716 | 0.000931 | 0.00119 | 0.0015 | 0.0019 | 0.00239 | 0.00292 | 0.00364 | 0.00449
in water | 9.39e-08 | 1.13e-07 | 1.35e-07 | 1.62e-07 | 1.91e-07 | 2.25e-07 | 2.64e-07 | 3.08e-07 | 3.57e-07 | 4.13e-07
